Measured values from patent US8378071B2, “Peptide epitopes of VEGFR-2/KDR that inhibit angiogenesis” (The United States of America as Represented by the …, priority 2005, dated 2013).

Legend:
H-2 Db = molecular target: T1, H-2 Db (Mus musculus, UniProt P01899); experiment: RMA-S binding assay (MHC stabilization, flow cytometry); conditions: for Concentration at FI=0.5: RMA-S cells loaded 16 to 18 h at 37° C, FI = fluorescence with peptide/without peptide - 1; for Binding to H-2 Db (in words): RMA-S cells, FIG. 1
T1 construct: enhance surface expression of the respective MHC class I molecules on these cells by stabilizing the peptide-MHC complex; endogenous in cells; host or cells: RMA-S (H-2b) cells
T1 sequence (P01899 25-362): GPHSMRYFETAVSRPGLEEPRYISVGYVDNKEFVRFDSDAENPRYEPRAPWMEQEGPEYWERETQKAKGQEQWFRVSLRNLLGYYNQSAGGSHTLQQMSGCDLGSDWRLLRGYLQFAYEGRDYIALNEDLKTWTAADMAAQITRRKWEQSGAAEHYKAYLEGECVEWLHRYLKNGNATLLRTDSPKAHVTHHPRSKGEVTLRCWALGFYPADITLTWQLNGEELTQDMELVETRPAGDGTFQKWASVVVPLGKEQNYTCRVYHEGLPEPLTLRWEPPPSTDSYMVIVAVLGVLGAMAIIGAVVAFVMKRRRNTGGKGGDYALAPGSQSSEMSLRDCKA
T1 sequence (P01887 21-119 partner): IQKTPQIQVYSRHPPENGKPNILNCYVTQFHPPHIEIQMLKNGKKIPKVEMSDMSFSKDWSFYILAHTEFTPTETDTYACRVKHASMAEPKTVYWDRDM
Method: FIG. 1 is a line graph illustrating results of an RMA-S binding assay. KDR2 and KDR3 bind efficiently to H-2 Db molecules. RMA-S cells were loaded with various peptides for 16 to 18 h at 37° C. Levels of surface class I molecules were assessed by flow cytometric analysis using mouse monoclonal antibodies specific for H-2 Db. FI=Fluoresce measurement after peptides stimulation/Fluoresce measurement without peptide-1. : KDR1, ▴: KDR2, : KDR3, ◯: wild type P53 264-272, : HPV 16 E7 49-57. HPV E7 49-57 and Human P53 264-272 serve as positive and negative control respectively. The results shown here are representative of three separate experiments.
To test the binding affinity of these peptides to H-2 Db, an RMA-S binding experiment was performed, and the FI value in the assay was measured. […] The RMA-Binding assays were performed as previously described (Lyman et al., J. Virol. 76:3125-3134, 2002). Briefly, synthetic peptides were dissolved in dimethyl sulfoxide before dilution. For MHC-binding assays, RMA-S cells were loaded with various peptides for 16 to 18 h at 37° C. Levels of surface class I molecules were assessed by flow cytometric analysis (FACScan; Becton Dickinson) using mouse monoclonal antibodies specific for H-2 Db (Southern Biotech, clone No. 28-14-8). FI=Fluorescence after peptides stimulation/Fluorescence without peptide-1.
Previous data have shown that the HPV16E7 49-57 can bind to H-2 Db molecules efficiently and induce a strong CTL response in B6 mice (Feltkamp et al., Eur. J. Immunol. 23:2242-2249, 1993). HPV16E7 49-57 peptide was used as a positive control; and the human P53 264-272, known to bind HLA-A2 but not H-2 Db, was used as a negative control (FIG. 1).

[1] = tested on: IFN-γ secreting spleen cells / DLN cells; experiment: IFN-γ Elispot assay on splenocytes or draining lymph node cells of peptide-vaccinated mice; format: in vivo, C57BL/6 mice; conditions: for IFN-γ secreting cells per million fresh DLN cells: stimulated with syngeneic VEGFR-2/KDR expressing H5V cells, FIG. 2C
Source text: FIGS. 2A-C are bar graphs representing the results of IFN-Eli spot assays. Four groups of mice (5 mice per group) were vaccinated with different peptides (KDR1, KDR2, KDR3). Mice were sacrificed, spleen or drained lymph nodes (DLN) cells prepared as described in methods section served as effectors. Syngeneic EL4 cells (3,000 rads) pulsed with peptides or H5V cells after treated with MMC served as stimulators. Irradiated EL4 without peptide or MMC treated allogeneic bEND3 cells as control. Dot bar: EL4 pulsed with irrelevant peptide as negative control; Solid bar: EL4 pulsed with KDR2 or KDR3 respectively; Open bar: EL4 without any peptide; A. Results of fresh spleen cells; B. Results of spleen cells after 1 week restimulation in vitro; C. Cells from fresh drained lymph nodes stimulated with H5V or bEND3 cells.
Mice were immunized with selected peptide, together with murine GM-CSF and anti-mouse CD40 as adjuvants. An emulsion containing 50 μl Incomplete Freud's Adjuvants (IFA, Sigma) with or without 100 […] of peptide and 5 μg murine GM-CSF (Pepro Tech), 20 μg anti-murine CD40 monoclonal antibody (Southern Biotech, Clone number 1C10) was prepared in a final volume of 100 μl. Subcutaneous injections were performed on the tails of the mice with 1 ml syringes and 30 gauge needles. For the Matrigel Plug Assay, two boosts were injected at 4 week intervals.
IFN-γ Elispots assay was performed on draining lymph nodes cells (DLN) or splenocytes collected 2 weeks after vaccination to evaluate the antigen specific immune response against the VEGFR-2/KDR peptides. Elispot plates (Millipore, Bedford, Mass.) were coated with 8 μg of anti-gamma interferon (IFN-γ) antibody per ml in sterile phosphate-buffered saline (PBS) overnight at 4° C. Plates were washed and then blocked with RPMI 1640 with 10% FBS. Fresh splenocytes or cells after 1 week in vitro restimulation were used as effectors. 1 or 5×10^5 effector cells were co-cultured overnight with or without 2×10^5 irradiated (3,000 rads) EL4 cells in 200 μl media at 37° C., 5% CO2 in the presence of appropriate concentration of peptide. When H5V and bEND3 cells in stead of EL4 were used as stimulators, they were treated with 0.1 mg/ml mitomycin C (Sigma, St. Louis) for half an hour at 37° C., then wash three times with PBS. 5×10^4H5V or bEND3 cells were co-cultured overnight with 2×10^5 draining lymph nodes cells. Spots were developed as previously described using biotin-conjugated anti-cytokine antibodies (Endogen, Boston, Mass.) and streptavidin-horseradish peroxidase in 1% BSA-PBS.

[2] = tested on: EL4 cells pulsed with peptides; experiment: 4-hour 51Cr release assay, CTLs from immunized mice, EL4 targets; format: cell-based, mouse; conditions: E:T ratio 50:1; for Percentage of lyses by induced CTLs, control: control for EL4 pulsed with peptide; for Percentage of lyses by induced CTLs: targets EL4 pulsed with the vaccinated peptide
Method: (§1) FIGS. 4A-D are line graphs illustrating the results of standard 4 hr ^51Cr release test. Three weeks after immunization, spleen cells were prepared from immunized mice (4-5 mice per group) and restimulated with vaccinated peptides in a 24-well plate in the presence of RPMI 1640 (Invitrogen) with 10% FCS. 10% T-stim was added 48 hours later into the culture media and the cells were incubated for 5 days at 37° C. The CTL activity was tested in a 4-hour ^51Cr release assay. Target cells include VEGFR-2/KDR+H5V (H-2d) and bEND3 (H-2b) endothelial cells, VEGFR-2/KDR-EL4 cells pulsed with peptides or EL4 alone. The percentage of specific lysis was calculated using the formula: (experimental release−spontaneous release)/(maximum release−spontaneous release)×100. Upper panel: effector cells from mice immunized with KDR2, Lower panel: effectors from KDR3 immunized mice.
(§2) Chromium (^51Cr) Release Assays were used to determine whether T cells identified as binding to VEGFR-2/KDR specifically targeted endothelial cells. Mice were vaccinated twice with 5 μg GM-CSF, 20 μg anti-CD40 and 100 μg peptide per mice. Briefly, spleen cells were prepared from immunized mice (4-5 mice per group) and restimulated with the vaccinated peptides in 24-well plates in RPMI 1640 (Invitrogen) with 10% FCS. Forty-eight hours later, 10% T-stim (BD Bioscience) was added into the culture media. CTL activity was tested in a 4-hour ^51Cr release assay 5 days later. VEGFR-2/KDR+syngeneic H5V (H-2d), allogeneic bEND3 (H-2b) endothelial cells and VEGFR-2/KDR syngeneic EL4 cells pulsed with peptides or EL4 alone served as target cells. The percentage cytotoxicity was calculated using the formula: (experimental release−spontaneous release)/(maximum release−spontaneous release)×100.

H5V endothelial cells = experiment: 4-hour 51Cr release assay, CTLs from immunized mice, endothelial cell targets; format: cell-based, mouse; conditions: for Percentage of lyses by induced CTLs, control: control for H5V; for Percentage of lyses by induced CTLs, control / Percentage of lyses by induced CTLs: E:T ratio 50:1; for Lysis of H5V cells and peptide-pulsed EL4 by induced CTLs (in words): not bEND3 or EL4 alone, FIG. 4; for Percentage of lyses by induced CTLs: targets H5V
Method: as §1, §2

HLA-A2 = molecular target: T2, HLA-A2 (Homo sapiens, UniProt P04439, D140Y/D185E/D98H/E176V/E277Q/G131W/G231S/I119V/I121R/I166T/I218V/L300P/L318F/N151K/N90K/P208A/P217A/Q86G/Q94H/R138H/R169H/T345S); experiment: T2 binding assay (HLA-A2 stabilization); conditions: T2 cells, FIG. 7
T2 construct: endogenous in cells; host or cells: T2 cells
Source text: The ability of any of the above described peptides to bind MHC Class I can be confirmed using assays available in the art. For example, the ability of a murine VEGFR-2/KDR peptide to bind a mouse Class I molecule, such as H-2 Db can be determined in a MHC stabilization assay employing RMA-S cells as described in Lyman et al., J. Virol. 76:3125-3134, 2002, and in the EXAMPLES Section below. The ability of a human VEGFR-2/KDR peptide to bind a human Class I molecule, such as an HLA-A2 protein can be evaluated in a T2 MHC binding assay as described by Cerundolo et al., Nature 342:449-452, 1990. In brief, T2 cells are cultured in RPMI1640 with 10% FBS, and grown in 5% CO2 at 37° C. […] The level of stabilized HLA-A2 on the surface of the T2 cells is detected using the pan HLA class I monoclonal antibody W6/32 (European Collection of Animal Cell Cultures (ECACC), Porton Down, Salisbury) that recognizes stabilized HLA-A2 complexes. The primary monoclonal antibody can be labeled or can be detected using, e.g., a labeled goat antimouse IgG (Cambridge Biosciences, Cambridge, United Kingdom) as the second layer. Samples are fixed in 1% paraformaldehyde in PBS prior to analysis and analyzed on a Becton Dickinson FACSCAN®. […]

“P53 264-272: human P53 264-272 peptide, binds HLA-A2 but not H-2 Db, negative control [reference compound]” was tested, and the “Concentration at FI=0.5” value (H-2 Db) was over 200 µM and the “Binding to H-2 Db (in words)” value (H-2 Db) was “does not bind”.

For “VILTNPISM [KDR2, murine VEGFR-2/KDR peptide, location 400-408]”, the “IFN-γ secreting fresh spleen cells relative to irrelevant HPV E7 peptide / background” value ([1]; FIG. 2A) was “about 50 times”, the “IFN-γ secreting cells per million fresh DLN cells” value [1] was 360 per million cells and the “Percentage of lyses by induced CTLs, control” value (“Percentage of lyses … control” below) [2] was “about 8%”. For the same substance, the “Percentage of lyses by induced CTLs” value [2] was 25%, the “Concentration at FI=0.5” value (H-2 Db) was “about 24 μM” and the “Binding to H-2 Db (in words)” value (H-2 Db) was “bind well”. For the same substance, the “Percentage of lyses … control” value (H5V endothelial cells) was about 1%, the “Lysis of H5V cells and peptide-pulsed EL4 by induced CTLs (in words)” value (H5V endothelial cells) was “can lyse” and the “Percentage of lyses by induced CTLs” value (H5V endothelial cells) was 28%.

In the case of “HPV16E7 49-57: Human Papilloma Virus 16E7 49-57 peptide, known H-2 Db binder, positive control (RAHYNIVTF) [reference compound]”, the “Concentration at FI=0.5” value (H-2 Db) is reported as “about 12.5 μM”.

“LLSEKNVVKI [KDR1, murine VEGFR-2/KDR peptide, location 1033-1042]” was tested, and the “IFN-γ secreting cells relative to background after 1 week in vitro culture with the vaccinated peptide” value ([1]; spleen cells restimulated 1 week in vitro, FIG. 2B) was “remained negative”.

In the case of “FSNSTNDILI [KDR3, murine VEGFR-2/KDR peptide, location 615-624]”, the “Number of IFN-γ secreting fresh spleen cells after pulsing with peptide” value ([1]; fresh spleen cells of vaccinated mice, FIG. 2A) is reported as 176, the “IFN-γ secreting fresh spleen cells relative to irrelevant HPV E7 peptide / background” value ([1]; FIG. 2A) is reported as “about 6 times” and the “IFN-γ secreting cells per million fresh DLN cells” value [1] is reported as 161 per million cells. For the same substance, the “Percentage of lyses … control” value [2] was 0%, the “Percentage of lyses by induced CTLs” value [2] was 21% and the “Concentration at FI=0.5” value (H-2 Db) was “about 3 μM”. The “Binding to H-2 Db (in words)” value (H-2 Db) was “bind well”, the “Percentage of lyses … control” value (H5V endothelial cells) was 3% and the “Lysis of H5V cells and peptide-pulsed EL4 by induced CTLs (in words)” value (H5V endothelial cells) was “can lyse”. For the same substance, the “Percentage of lyses by induced CTLs” value (H5V endothelial cells) was 13%.

“AMFFWLLLV [KDR775, human VEGFR-2/KDR peptide]” was tested, and the “Affinity for MHC molecules relative to the other peptides (in words)” value (HLA-A2) was “substantially higher affinity”.
